Laboratory results: ChEMBL document CHEMBL4373732, “Phosphatidylinositol 3 kinase (PI3K) inhibitors as new weapon to combat cancer” (Eur J Med Chem, 2019)
Blank lines part the entries; values can stand above or below the compound they belong to.

Key:
[1] = molecular target: Phosphatidylinositol 4,5-bisphosphate 3-kinase catalytic subunit alpha isoform (Homo sapiens, UniProt P42336); test: Inhibition of PI3K p110alpha (unknown origin)
[2] = molecular target: T1, Phosphatidylinositol 4,5-bisphosphate 3-kinase catalytic subunit beta isoform (Homo sapiens, UniProt P42338); test: Inhibition of PI3K p110beta (unknown origin)
T1 sequence (P42338 whole entry, canonical isoform): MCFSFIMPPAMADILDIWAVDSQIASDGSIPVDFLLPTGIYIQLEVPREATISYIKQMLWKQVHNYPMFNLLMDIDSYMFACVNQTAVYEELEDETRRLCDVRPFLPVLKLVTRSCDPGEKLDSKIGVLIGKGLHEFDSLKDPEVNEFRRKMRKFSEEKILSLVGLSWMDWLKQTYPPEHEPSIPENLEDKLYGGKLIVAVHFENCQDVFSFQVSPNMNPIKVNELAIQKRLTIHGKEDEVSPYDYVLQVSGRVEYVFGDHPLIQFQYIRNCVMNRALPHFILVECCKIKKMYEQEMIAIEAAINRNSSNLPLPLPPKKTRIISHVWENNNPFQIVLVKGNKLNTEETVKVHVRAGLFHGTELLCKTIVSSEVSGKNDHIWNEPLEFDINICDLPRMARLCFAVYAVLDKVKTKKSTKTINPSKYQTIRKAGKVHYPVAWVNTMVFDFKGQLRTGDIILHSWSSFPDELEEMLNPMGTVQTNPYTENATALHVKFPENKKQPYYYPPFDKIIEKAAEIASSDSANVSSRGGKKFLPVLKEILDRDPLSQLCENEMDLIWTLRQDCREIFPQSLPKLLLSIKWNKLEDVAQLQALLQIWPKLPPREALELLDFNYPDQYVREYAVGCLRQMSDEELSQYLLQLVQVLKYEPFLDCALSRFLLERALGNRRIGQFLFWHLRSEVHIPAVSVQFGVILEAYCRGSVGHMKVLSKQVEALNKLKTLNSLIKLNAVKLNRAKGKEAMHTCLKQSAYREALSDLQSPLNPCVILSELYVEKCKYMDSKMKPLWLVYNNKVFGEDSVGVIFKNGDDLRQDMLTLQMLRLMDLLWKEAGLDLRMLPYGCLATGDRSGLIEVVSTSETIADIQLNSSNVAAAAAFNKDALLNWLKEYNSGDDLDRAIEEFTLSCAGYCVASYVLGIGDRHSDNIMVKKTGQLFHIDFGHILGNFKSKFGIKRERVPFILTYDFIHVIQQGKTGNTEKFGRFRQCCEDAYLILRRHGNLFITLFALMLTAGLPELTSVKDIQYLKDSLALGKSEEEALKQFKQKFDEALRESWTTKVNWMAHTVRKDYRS

[3] = molecular target: T2, Phosphatidylinositol 4,5-bisphosphate 3-kinase catalytic subunit delta isoform (Homo sapiens, UniProt O00329); test: Inhibition of PI3K p110delta (unknown origin)
T2 sequence (O00329 whole entry): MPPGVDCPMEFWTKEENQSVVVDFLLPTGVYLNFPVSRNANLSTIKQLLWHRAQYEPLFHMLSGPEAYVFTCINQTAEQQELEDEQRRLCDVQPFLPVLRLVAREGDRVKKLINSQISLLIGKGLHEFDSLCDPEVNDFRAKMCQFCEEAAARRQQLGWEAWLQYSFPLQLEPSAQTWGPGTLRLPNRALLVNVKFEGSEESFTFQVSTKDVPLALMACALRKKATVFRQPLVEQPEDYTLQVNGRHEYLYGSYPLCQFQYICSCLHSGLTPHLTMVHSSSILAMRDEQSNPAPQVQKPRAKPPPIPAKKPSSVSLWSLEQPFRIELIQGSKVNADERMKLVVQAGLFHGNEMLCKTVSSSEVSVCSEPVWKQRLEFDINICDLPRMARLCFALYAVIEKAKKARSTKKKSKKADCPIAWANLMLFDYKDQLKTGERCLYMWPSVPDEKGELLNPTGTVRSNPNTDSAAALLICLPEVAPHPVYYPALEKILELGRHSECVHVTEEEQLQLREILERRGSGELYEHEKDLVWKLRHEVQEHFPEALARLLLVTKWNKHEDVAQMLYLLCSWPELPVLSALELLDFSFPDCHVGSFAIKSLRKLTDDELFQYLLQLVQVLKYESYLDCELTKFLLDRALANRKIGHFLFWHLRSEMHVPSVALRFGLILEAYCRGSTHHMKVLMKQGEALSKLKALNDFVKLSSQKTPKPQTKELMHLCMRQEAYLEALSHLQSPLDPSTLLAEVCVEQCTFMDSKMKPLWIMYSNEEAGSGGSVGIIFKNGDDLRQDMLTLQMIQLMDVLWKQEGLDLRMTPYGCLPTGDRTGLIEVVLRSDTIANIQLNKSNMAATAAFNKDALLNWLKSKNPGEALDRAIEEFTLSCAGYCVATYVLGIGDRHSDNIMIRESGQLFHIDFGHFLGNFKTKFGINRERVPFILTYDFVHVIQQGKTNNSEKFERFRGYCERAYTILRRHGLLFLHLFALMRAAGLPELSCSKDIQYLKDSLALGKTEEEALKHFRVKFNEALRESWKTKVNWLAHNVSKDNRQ

[4] = molecular target: T3, Phosphatidylinositol 4,5-bisphosphate 3-kinase catalytic subunit gamma isoform (Homo sapiens, UniProt P48736); test: Inhibition of PI3K p110gamma (unknown origin)
T3 sequence (P48736 whole entry, canonical isoform): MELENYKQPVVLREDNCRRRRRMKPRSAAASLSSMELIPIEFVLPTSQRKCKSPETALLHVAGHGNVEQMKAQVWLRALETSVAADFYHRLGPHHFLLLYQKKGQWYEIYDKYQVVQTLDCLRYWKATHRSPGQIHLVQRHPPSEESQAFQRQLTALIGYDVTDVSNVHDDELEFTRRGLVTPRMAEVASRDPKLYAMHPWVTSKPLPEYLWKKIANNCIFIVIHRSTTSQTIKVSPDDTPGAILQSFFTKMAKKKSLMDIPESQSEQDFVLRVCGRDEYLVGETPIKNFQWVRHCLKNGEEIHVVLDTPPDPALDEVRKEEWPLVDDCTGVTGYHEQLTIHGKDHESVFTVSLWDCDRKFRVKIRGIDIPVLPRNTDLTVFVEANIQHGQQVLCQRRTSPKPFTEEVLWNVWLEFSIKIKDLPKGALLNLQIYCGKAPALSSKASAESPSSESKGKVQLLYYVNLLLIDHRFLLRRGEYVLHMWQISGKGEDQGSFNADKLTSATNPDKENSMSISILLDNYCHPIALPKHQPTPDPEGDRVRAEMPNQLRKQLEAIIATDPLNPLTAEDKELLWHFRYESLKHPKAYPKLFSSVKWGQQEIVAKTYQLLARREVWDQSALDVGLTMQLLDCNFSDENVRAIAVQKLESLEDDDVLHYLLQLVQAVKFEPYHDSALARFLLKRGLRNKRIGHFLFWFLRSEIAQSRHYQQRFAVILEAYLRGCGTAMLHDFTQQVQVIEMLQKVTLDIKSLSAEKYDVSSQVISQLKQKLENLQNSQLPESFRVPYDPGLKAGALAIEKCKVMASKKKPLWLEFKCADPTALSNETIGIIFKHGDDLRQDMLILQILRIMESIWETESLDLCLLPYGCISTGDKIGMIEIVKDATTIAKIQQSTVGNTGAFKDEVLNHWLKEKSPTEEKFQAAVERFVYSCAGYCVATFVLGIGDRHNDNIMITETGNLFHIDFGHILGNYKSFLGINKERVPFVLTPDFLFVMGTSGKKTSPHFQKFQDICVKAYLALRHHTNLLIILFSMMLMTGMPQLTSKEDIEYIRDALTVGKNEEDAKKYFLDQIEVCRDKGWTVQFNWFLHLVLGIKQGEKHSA

[5] = molecular target: Serine/threonine-protein kinase mTOR (Homo sapiens, UniProt P42345)
[6] = molecular target: T3, Phosphatidylinositol 4,5-bisphosphate 3-kinase catalytic subunit gamma isoform; test: Reversible competitive inhibition of PI3K p110gamma (unknown origin)
[7] = molecular target: T1, Phosphatidylinositol 4,5-bisphosphate 3-kinase catalytic subunit beta isoform
[8] = molecular target: T2, Phosphatidylinositol 4,5-bisphosphate 3-kinase catalytic subunit delta isoform; test: Inhibition of PI3Kdelta (unknown origin)

Sequence of Phosphatidylinositol 4,5-bisphosphate 3-kinase catalytic subunit alpha isoform (P42336 whole entry, canonical isoform): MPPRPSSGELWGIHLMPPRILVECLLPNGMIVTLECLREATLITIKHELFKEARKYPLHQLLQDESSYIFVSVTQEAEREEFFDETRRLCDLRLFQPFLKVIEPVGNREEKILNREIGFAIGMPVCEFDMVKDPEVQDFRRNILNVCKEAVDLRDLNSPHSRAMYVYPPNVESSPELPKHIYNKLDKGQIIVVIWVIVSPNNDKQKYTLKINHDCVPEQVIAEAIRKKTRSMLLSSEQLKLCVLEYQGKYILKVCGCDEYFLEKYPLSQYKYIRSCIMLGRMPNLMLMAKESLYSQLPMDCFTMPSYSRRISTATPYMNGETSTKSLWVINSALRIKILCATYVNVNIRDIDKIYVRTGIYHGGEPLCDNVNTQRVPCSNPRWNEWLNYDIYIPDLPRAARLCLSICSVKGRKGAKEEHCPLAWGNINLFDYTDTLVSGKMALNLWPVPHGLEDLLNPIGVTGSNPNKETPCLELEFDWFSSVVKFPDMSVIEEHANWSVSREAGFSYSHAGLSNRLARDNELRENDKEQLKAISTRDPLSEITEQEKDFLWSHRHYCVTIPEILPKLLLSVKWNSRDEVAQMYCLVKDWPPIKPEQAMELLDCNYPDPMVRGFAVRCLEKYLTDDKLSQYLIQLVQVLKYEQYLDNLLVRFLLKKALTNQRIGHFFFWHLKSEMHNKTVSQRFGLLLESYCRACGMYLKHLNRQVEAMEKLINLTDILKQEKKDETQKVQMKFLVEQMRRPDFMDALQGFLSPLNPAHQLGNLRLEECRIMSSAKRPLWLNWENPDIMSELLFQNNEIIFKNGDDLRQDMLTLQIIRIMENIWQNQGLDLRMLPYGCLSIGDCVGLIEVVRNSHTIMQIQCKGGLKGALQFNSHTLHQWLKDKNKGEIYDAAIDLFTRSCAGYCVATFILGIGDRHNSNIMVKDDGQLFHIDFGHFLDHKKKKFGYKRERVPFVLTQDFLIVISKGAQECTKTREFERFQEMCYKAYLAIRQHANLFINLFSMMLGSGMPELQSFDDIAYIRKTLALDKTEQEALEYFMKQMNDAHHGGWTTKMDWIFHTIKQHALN

Structure (SMILES): CCn1c(=O)c(-c2cc[nH]n2)cc2c(C)nc(N)nc21 [VOXTALISIB]
- IC50 [1]: 39 nM
- IC50 [2]: 113 nM
- IC50 [3]: 43 nM
- IC50 [4]: 9 nM
- IC50 [5]: 157 nM

- IC50 [6]: 383 nM
- IC50 [7]: 36 nM
Structure (SMILES): COc1ccc(Cl)c(Nc2nc3ccccc3nc2NS(=O)(=O)c2cccc(NC(=O)C(C)(C)N)c2)c1 [PILARALISIB]

Structure (SMILES): C[C@H](Nc1ncnc2[nH]cnc12)c1nc2ccc(F)cc2c(=O)n1-c1ccccc1 [ACALISIB]
- IC50 [8]: 12.7 nM
